Experimental data reported in PubChem BioAssay AID1963959 (Molecular Pharmacology Branch, DTP, NCI, 2024).

Tested on: T-47D spheroids with HUVEC/MSC, viability
Assay: Anticancer human tumor T-47D cell line growth inhibition [PI3K];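 also: spheroids exposed to agents for seven days before reading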;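 as to viability, T/C: percent of DMSO vehicle control luminescence so 100% = untreated growth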
Conditions: for IC50: curve of first compound; for viability, T/C: stronger effect = lower value
Excerpt: Combinatorial screen of targeted agents with the PI3K inhibitors inavolisib, alpelisib, duvelisib, and copanlisib in multi-cell type tumor spheroids
A high-throughput screen of multi-cell type tumor spheroids was designed to identify active combinations of targeted small molecules and PI3K pathway inhibitors. Complex spheroids include a stromal component modeled by human endothelial cells (HUVEC) and fibroblasts modeled by human mesenchymal stem cells (MSCs). The concentration ranges selected for each drug and investigational agent were based upon clinically achievable concentrations if the clinical Cmax of the agent was known.
Compounds. The drugs and investigational agents: inavolisib (NSC800729), alpelisib (NSC765974), duvelisib (NSC772469), copanlisib (NSC816437), ipatasertib (NSC767898), afuresertib (NSC778305), talazoparib (NSC767125), sapanisertib (NSC764658), selumetinib (NSC741078), tovorafenib (DAY101, NSC766906), vemurafenib (NSC761431), ravoxertinib (NSC781343), sotorasib (NSC818433), MRTX1133 (NSC 836407), abemaciclib (NSC 768073), palbociclib (NSC758247), venetoclax (NSC 766270), SY5609 (NSC837396), enzalutamide (NSC755605), and darolutamide (NSC825331), were obtained from the National Cancer Institute (NCI) Developmental Therapeutics Program Chemical Repository. The FDA-approved anticancer drug set is available from the NCI Developmental Therapeutics Program. […] The stock solutions were prepared in dimethyl sulfoxide (DMSO, Sigma-Aldrich, St. Louis, MO, cat. D2650) at 800-fold the tested concentration and stored at -70 degrees C prior to their use. All drugs and investigational agents were tested over a range starting from a high concentration at or near the clinical Cmax and decreasing in half-log increments. If the clinical Cmax for an agent had not been determined, the highest concentration tested was 10 microM.
Cell Culture. All cells were maintained in an incubator at 37 degrees C and 5% CO2 with 95% humidity. The PDC lines were cultured according to standard operating procedures established by the NCI PDMR (https://pdmr.cancer.gov/sops/default.htm). All PDCs were thawed and cultured in Matrigel-coated flasks prepared with a working solution of 1X Ham's F-12 nutrient mix, without supplementation (Invitrogen, Waltham, MA, cat. 11765054), 100 U/mL penicillin-streptomycin (Invitrogen, cat. 15140122), and 2.5% Matrigel (Corning Inc., Corning, NY, cat. 354248) for the first three passages. The 354836-022-R-J1-PDC, 475296-252-R-J1-PDC, and 997726-040-R-J2-PDC lines were cultured in 6A media, which includes advanced DMEM/F-12 (Thermo Fisher Scientific, cat. 12634028), 10 mM HEPES (Thermo Fisher Scientific, cat. 15630080), 1X GlutaMAX supplement (Thermo Fisher Scientific, cat. 35050061), 0.1 mg/mL primocin (InvivoGen, San Diego, CA, cat. ant-pm-2), 10% defined fetal bovine serum, heat inactivated (HyClone Laboratories Inc., Logan, UT, cat. SH30070.03HI), 50% L-WRN conditioned media (ATCC, cat. CRL-3276), 1.25 mM N-Acetyl-L-cysteine (Sigma-Aldrich, cat. A9165), 10 mM nicotinamide (Sigma-Aldrich, cat. N0636), 1X B-27 supplement (Thermo Fisher Scientific, cat. 17504044), 1X N-2 supplement (Thermo Fisher Scientific, cat. 17502048), and 10 microM Y-27632 dihydrochloride (Tocris Bioscience, Bristol, United Kingdom, cat. 1254). The 624824-186-R-J2-PDC line was cultured in 6C/Colon 1B media, which includes all 6A media components plus 50 ng/mL human EGF recombinant protein (Thermo Fisher Scientific, cat. PHG0311). […]

[1] = second compound 0.0316 µM, first compound 0.0316 µM
[2] = second compound 0.0316 µM, first compound 0.1 µM
[3] = second compound 0.0316 µM, first compound 0.316 µM
[4] = second compound 0.0316 µM, first compound 1 µM
[5] = second compound 0.0316 µM, first compound 3.16 µM
[6] = second compound 0.0316 µM, first compound 10 µM
[7] = second compound 0.1 µM, first compound 0.0316 µM
[8] = second compound 0.1 µM, first compound 0.1 µM
[9] = second compound 0.1 µM, first compound 0.316 µM
[10] = second compound 0.1 µM, first compound 1 µM
[11] = second compound 0.1 µM, first compound 3.16 µM
[12] = second compound 0.1 µM, first compound 10 µM
[13] = second compound 0.316 µM, first compound 0.0316 µM
[14] = second compound 0.316 µM, first compound 0.1 µM
[15] = second compound 0.316 µM, first compound 0.316 µM
[16] = second compound 0.316 µM, first compound 1 µM
[17] = second compound 0.316 µM, first compound 3.16 µM
[18] = second compound 0.316 µM, first compound 10 µM
[19] = second compound 1 µM, first compound 0.0316 µM
[20] = second compound 1 µM, first compound 0.1 µM
[21] = second compound 1 µM, first compound 0.316 µM
[22] = second compound 1 µM, first compound 1 µM
[23] = second compound 1 µM, first compound 3.16 µM
[24] = second compound 1 µM, first compound 10 µM

CC1(C)CCC(Nc2ncc(C(F)(F)F)c(-c3c[nH]c4c(P(C)(C)=O)c(C#N)ccc34)n2)CN1 (centres undefined) + CC(Nc1ccc2c(c1)OCCn1cc(N3C(=O)OCC3C(F)F)nc1-2)C(N)=O
IC50 (second compound 0.00316 µM): > 10 µM | IC50 (second compound 0.01 µM): > 10 µM | IC50 (second compound 0.0316 µM): 5.84 µM | IC50 (second compound 0.1 µM): 4.42 µM | IC50 (second compound 0.316 µM): < 0.0316 µM | IC50 (second compound 1 µM): < 0.0316 µM | viability, T/C (second compound 0.00316 µM, first compound 0.0316 µM): 66.4% | viability, T/C (second compound 0.00316 µM, first compound 0.1 µM): 70% | viability, T/C (second compound 0.00316 µM, first compound 0.316 µM): 59.1% | viability, T/C (second compound 0.00316 µM, first compound 1 µM): 73.5% | viability, T/C (second compound 0.00316 µM, first compound 3.16 µM): 76.9% | viability, T/C (second compound 0.00316 µM, first compound 10 µM): 48.8% | viability, T/C (second compound 0.01 µM, first compound 0.0316 µM): 72.3% | viability, T/C (second compound 0.01 µM, first compound 0.1 µM): 68.3% | viability, T/C (second compound 0.01 µM, first compound 0.316 µM): 67.5% | viability, T/C (second compound 0.01 µM, first compound 1 µM): 72.3% | viability, T/C (second compound 0.01 µM, first compound 3.16 µM): 82.4% | viability, T/C (second compound 0.01 µM, first compound 10 µM): 47.6% | viability, T/C [1]: 65.4% | viability, T/C [2]: 68.3% | viability, T/C [3]: 60.2% | viability, T/C [4]: 68.7% | viability, T/C [5]: 67% | viability, T/C [6]: 36.2% | viability, T/C [7]: 62% | viability, T/C [8]: 65.2% | viability, T/C [9]: 46.3% | viability, T/C [10]: 47.3% | viability, T/C [11]: 61.4% | viability, T/C [12]: 34.2% | viability, T/C [13]: 53.1% | viability, T/C [14]: 42.6% | viability, T/C [15]: 37.8% | viability, T/C [16]: 36.2% | viability, T/C [17]: 40.4% | viability, T/C [18]: 17.1% | viability, T/C [19]: 40.8% | viability, T/C [20]: 30.8% | viability, T/C [21]: 29.7% | viability, T/C [22]: 29.5% | viability, T/C [23]: 26.4% | viability, T/C [24]: 6.28%

CNC(=O)c1ccc(N2C(=S)N(c3ccc(C#N)c(C(F)(F)F)c3)C(=O)C2(C)C)cc1F + CC(Nc1ncnc2nc[nH]c12)c1cc2cccc(Cl)c2c(=O)n1-c1ccccc1
IC50 (second compound 0.0316 µM): > 10 µM | IC50 (second compound 0.1 µM): > 10 µM | IC50 (second compound 0.316 µM): > 10 µM | IC50 (second compound 1 µM): > 10 µM | IC50 (second compound 3.16 µM): > 10 µM | IC50 (second compound 10 µM): > 10 µM | viability, T/C [1]: 117% | viability, T/C [2]: 108% | viability, T/C [3]: 96.2% | viability, T/C [4]: 85.9% | viability, T/C [5]: 97.1% | viability, T/C [6]: 79.6% | viability, T/C [7]: 101% | viability, T/C [8]: 85.4% | viability, T/C [9]: 114% | viability, T/C [10]: 99.9% | viability, T/C [11]: 95.4% | viability, T/C [12]: 80.2% | viability, T/C [13]: 89% | viability, T/C [14]: 88% | viability, T/C [15]: 84.2% | viability, T/C [16]: 80.7% | viability, T/C [17]: 92.3% | viability, T/C [18]: 86.5% | viability, T/C [19]: 93.7% | viability, T/C [20]: 87.5% | viability, T/C [21]: 78.1% | viability, T/C [22]: 86% | viability, T/C [23]: 91.7% | viability, T/C [24]: 76.9% | viability, T/C (second compound 3.16 µM, first compound 0.0316 µM): 88.5% | viability, T/C (second compound 3.16 µM, first compound 0.1 µM): 76.4% | viability, T/C (second compound 3.16 µM, first compound 0.316 µM): 86% | viability, T/C (second compound 3.16 µM, first compound 1 µM): 85.5% | viability, T/C (second compound 3.16 µM, first compound 3.16 µM): 95.2% | viability, T/C (second compound 3.16 µM, first compound 10 µM): 94% | viability, T/C (second compound 10 µM, first compound 0.0316 µM): 96.8% | viability, T/C (second compound 10 µM, first compound 0.1 µM): 90.9% | viability, T/C (second compound 10 µM, first compound 0.316 µM): 84.3% | viability, T/C (second compound 10 µM, first compound 1 µM): 84.1% | viability, T/C (second compound 10 µM, first compound 3.16 µM): 98.3% | viability, T/C (second compound 10 µM, first compound 10 µM): 88.7%
